According to paper PMC7998731, “Pharmacokinetic Characterization of Supinoxin and Its Physiologically Based Pharmacokinetic Modeling in Rats” (Pharmaceutics, 2021):

Experiment: Transport of supinoxin in Caco-2 cells (bidirectional permeability)
Type: in vitro ADME
Details: human, supinoxin 1 µM
Experimental: The Caco-2 intestinal epithelial cell line (ATCC® HTB-37™) purchased from American Type Culture Collection (ATCC, Manassas, VA, USA) was cultured and maintained in Dulbecco’s modified Eagle medium (DMEM) containing 10% fetal bovine serum, 100 U/mL penicillin, and 0.1 mg/mL streptomycin under humidified atmosphere of air containing 5% CO2 at 37 °C. Caco-2 cells were seeded at a density of 6 × 10^4 cells/cm^2 onto polyethylene membranes of transwell plates (Corning Costar, Cambridge, MA, USA). The medium was replaced on alternate days after seeding, and cell monolayers were used for the transport assay after approximately 21 days of culture. Trans-epithelial electrical resistance (TEER) values of the Caco-2 monolayers were measured with an EVOM epithelial tissue voltmeter (World Precision Instruments, Sarasota, FL, USA), and cells with TEER greater than 300 Ω were used for the experiments. Cell monolayers were first rinsed three times with transport buffer (Hank’s balanced salt solution supplemented with 10 mM HEPES) and preincubated for 30 min at 37 °C. To measure the bidirectional transport of the compound, a transport buffer containing 1 µM supinoxin was added to the respective donor compartments (the apical and basolateral sides for absorptive and secretory transport assays, respectively). Samples (200 µL) were collected at 30, 60, 90, and 120 min, and an identical volume of fresh buffer was replenished. The samples were then subjected to LC–MS/MS analysis and concentrations of the samples were determined. After the final sampling from both compartments, we measured the TEER of the monolayers to ensure no possible adverse effects induced by the experimental procedures and then estimated the apparent permeability coefficient of supinoxin from the compound’s time-dependent accumulation (dQ/dt) in the receiver compartments using the following equation: Papp = dQ/dt × 1/(A × C0)(1) where dQ/dt is the rate of transport, A is the surface area of the filter, and C0 is the initial concentration in the donor chamber.

Papp A→B at 120 min, 1 µM (Caco-2, Caco-2 cell monolayers, read-out: apical to basolateral apparent permeability coefficient): 15.5 ± 0.8 ×10⁻⁶ cm/s
Papp B→A at 120 min, 1 µM (Caco-2 cell monolayers, read-out: basolateral to apical apparent permeability coefficient): 15.7 ± 0.8 ×10⁻⁶ cm/s
Structure (SMILES): COCCc1ccc(OCC(O)CNC(C)C)cc1 (centres unmarked) [metoprolol, reference compound]
